Measured values taken from ChEMBL document CHEMBL5257038, “Active Natural Product Scaffolds against Trypanosomatid Parasites: A Review” (J Nat Prod, 2018).
Values belong to the molecule of their own block, whether it stands above or below them.

Key:
[1] = system: Leishmania infantum; assay: Antileishmanial activity against promastigote stage of Leishmania infantum; type: functional, organism-based
[2] = system: THP-1; assay: Cytotoxicity against human THP-1 cells; type: functional, cell-based
[3] = system: Trypanosoma brucei; assay: Antitrypanosomal activity against bloodstream form of Trypanosoma brucei assessed as parasite growth inhibition; type: functional, organism-based
[4] = system: Trypanosoma brucei; assay: In vivo antitrypanosomal activity against Trypanosoma brucei infected in mouse assessed as cured animal rate at 10 mg/kg administered once daily for 7 days relative to control; type: functional; details: time 7 day
[5] = Inhibition of Trypanosoma brucei CLK1
[6] = system: Trypanosoma cruzi; assay: Antitrypanosomal activity against epimastigote form of Trypanosoma cruzi assessed as reduction in parasite growth; type: functional, organism-based
[7] = system: Leishmania amazonensis; assay: Antileishmanial activity against Leishmania amazonensis promastigotes assessed as parasite growth inhibition; type: functional, organism-based
[8] = system: Leishmania amazonensis; assay: Antileishmanial activity against Leishmania amazonensis amastigotes assessed as parasite growth inhibition; type: functional, organism-based
[9] = system: Trypanosoma brucei rhodesiense; assay: Antitrypanosomal activity against bloodstream form of Trypanosoma brucei rhodesiense assessed as parasite growth inhibition; type: functional, organism-based
[10] = system: Leishmania major; assay: Antileishmanial activity against Leishmania major promastigotes assessed as parasite growth inhibition; type: functional, organism-based
[11] = system: Leishmania donovani; assay: Antileishmanial activity against Leishmania donovani promastigotes assessed as parasite growth inhibition; type: functional, organism-based
[12] = Selectivity index, ratio of IC50 for cytotoxicity against mouse peritoneal macrophage cells to IC50 for antileishmanial activity against Leishmania donovani promastigotes; type: toxicity, cell-based; details: read-out: Ratio IC50
[13] = Selectivity index, ratio of IC50 for cytotoxicity against mouse peritoneal macrophage cells to IC50 for antitrypanosomal activity against bloodstream form of Trypanosoma brucei; type: toxicity, cell-based; details: read-out: Ratio IC50
[14] = system: Leishmania donovani; assay: Antileishmanial activity against amastigote form of Leishmania donovani assessed as parasite growth inhibition; type: functional, organism-based
[15] = system: Trypanosoma cruzi; assay: Antitrypanosomal activity against intracellular Trypanosoma cruzi amastigote assessed as reduction in parasite growth; type: functional, organism-based
[16] = Selectivity index, ratio of IC50 for cytotoxicity against rat L6 cells to IC50 for antileishmanial activity against amastigote form of Leishmania donovani; type: toxicity, cell-based; details: read-out: Ratio IC50
[17] = Selectivity index, ratio of IC50 for cytotoxicity against rat L6 cells to IC50 for antitrypanosomal activity against bloodstream form of Trypanosoma brucei rhodesiense; type: toxicity, cell-based; details: read-out: Ratio IC50
[18] = Selectivity index, ratio of IC50 for cytotoxicity against rat L6 cells to IC50 for antitrypanosomal activity against intracellular Trypanosoma cruzi amastigote; type: toxicity, cell-based; details: read-out: Ratio IC50
[19] = system: Leishmania mexicana; assay: Antileishmanial activity against Leishmania mexicana promastigotes assessed as parasite growth inhibition; type: functional, organism-based
[20] = system: Trypanosoma cruzi; assay: In vivo antitrypanosomal activity against Trypanosoma cruzi infected in mouse assessed as fold reduction in parasitemia measured upto 30 days; type: functional; details: time <= 30 day
[21] = system: Trypanosoma cruzi; assay: In vivo antitrypanosomal activity against Trypanosoma cruzi infected in mouse assessed as survival rate measured upto 30 days relative to control; type: functional; details: time <= 30 day
[22] = Selectivity index, ratio of IC50 for cytotoxicity against African green monkey Vero cells to IC50 for antitrypanosomal activity against Trypanosoma cruzi amastigote; type: toxicity, cell-based; details: read-out: Ratio IC50
[23] = Selectivity index, ratio of IC50 for cytotoxicity against African green monkey Vero cells to IC50 for antileishmanial activity against amastigote form of Leishmania donovani; type: toxicity, cell-based; details: read-out: Ratio IC50
[24] = system: Plasmodium berghei; assay: In vivo antimalarial activity against GFP-transfected Plasmodium berghei ANKA infected in NMRI mouse assessed as reduction in parasitemia at 50 mg/kg/day, ip administered for 4 consecutive days relative to control; type: functional
[25] = system: Plasmodium berghei; assay: In vivo antimalarial activity against GFP-transfected Plasmodium berghei ANKA infected in NMRI mouse assessed as reduction of parasitaemia at 100 mg/kg/day, po for 4 days relative to control; type: functional; details: 96 h, time 4 day
[26] = system: Trypanosoma cruzi; assay: Antitrypanosomal activity against trypomastigote form of Trypanosoma cruzi assessed as reduction in parasite growth; type: functional, organism-based
[27] = system: Trypanosoma brucei brucei; assay: Antitrypanosomal activity against bloodstream form of Trypanosoma brucei brucei assessed as reduction in parasite growth; type: functional, organism-based
[28] = system: Leishmania donovani; assay: Antileishmanial activity against amastigote form of Leishmania donovani HU3 infected in Balb/c mouse assessed as parasite growth inhibition at 30 mg/kg, ip for 5 days relative to control; type: functional; details: HU3, 120 h, time 5 day
[29] = system: Leishmania donovani; assay: Antileishmanial activity against Leishmania donovani promastigotes infected in golden hamster assessed as reduction in parasite load in spleen at 14.0 mg/kg administered twice per week for 4 weeks relative to control; type: functional; set-up: scale not given: the % may be the effect or the level left
[30] = system: Trypanosoma brucei; assay: Antitrypanosomal activity against Trypanosoma brucei; type: functional, organism-based

Compound: CC(C)[C@@H](C)/C=C/[C@@H](C)[C@H]1CC[C@@H]2[C@]1(C)CC[C@H]1[C@]23C=C[C@]2(C[C@@H](O)CC[C@]12C)OO3 [ERGOSTEROL PEROXIDE]
EC50 [6]: 16.8 µM | EC50 [7]: 13.9 µM | EC50 [8]: 4 µM

Compound: C=C(C)C(=O)O[C@H]1CC2=C[C@@H](C/C(C)=C/[C@H]3OC(=O)C(=C)[C@H]13)OC2=O
EC50 [9]: 0.07 µM | EC50 [10]: < 0.28 µM

Compound: Cn1c2c3cc(Br)ccc3nc-2cc2cc(Br)ccc21
EC50 [11]: 0.5 µM | EC50 [3]: 0.0029 µM | selectivity ratio [12]: 18 | selectivity ratio [13]: 2080

Compound: C=C1C(=O)O[C@@H]2[C@H]1CC[C@H](C)[C@@H]1CCC(=O)O[C@@]21C
EC50 [6]: 2.3 µM | EC50 [15]: 3.4 µM | EC50 [19]: 4.5 µM | EC50 [7]: 5.7 µM | fold change (FC) [20]: 2 | Survival [21]: 20%

Compound: O=c1c(O)c(-c2ccc(O)c(O)c2)oc2cc(O)cc(O)c12 [QUERCETIN]
EC50 [27]: 25.8 µM | EC50 [14]: 3.3 µM | inhibition in vivo at 30 mg/kg [28]: 15% | Activity [29]: 90%

Compound: C/C=C/[C@]1(C)C[C@@](/C=C(\C)C[C@@H](CC)CC/C=C/CC)(CC)OO1
EC50 [30]: 5 µM

Compound: CC(C)[C@@H]1NC(=O)[C@H](C)OC(=O)[C@@H](C(C)C)NC(=O)[C@@H](C(C)C)OC(=O)[C@H](C(C)C)NC(=O)[C@H](C)OC(=O)[C@@H](C(C)C)NC(=O)[C@@H](C(C)C)OC(=O)[C@H](C(C)C)NC(=O)[C@H](C)OC(=O)[C@@H](C(C)C)NC(=O)[C@@H](C(C)C)OC1=O [VALINOMYCIN]
EC50 [27]: 0.0032 µM | EC50 [10]: < 0.11 µM

Now from value to molecule, other results behind:

EC50 [1]: 0.04 µM
Compound: C[C@@H]1[C@H](O)[C@@H](C)/C=C/C=C/C=C/C=C/C=C/C=C/C=C/[C@H](O[C@@H]2O[C@H](C)[C@@H](O)[C@H](N)[C@@H]2O)C[C@@H]2O[C@](O)(C[C@@H](O)C[C@@H](O)[C@H](O)CC[C@@H](O)C[C@@H](O)CC(=O)O[C@H]1C)C[C@H](O)[C@H]2C(=O)O [AMPHOTERICIN B]
EC50 [2]: 2 µM

EC50 [3]: 0.17 µM
Compound: COc1cc(O)c2c(c1)[C@H]1O[C@@H]1C[C@H](O)[C@H](O)C(=O)/C=C\C[C@H](C)OC2=O [HYPOTHEMYCIN]
Activity [4]: 33% | IC50 [5]: 0.15 µM

EC50 [9]: 2.2 µM | EC50 [15]: 33 µM
Compound: O=c1c(O)c(-c2ccccc2)oc2ccccc12 [FLAVONOL]
EC50 [14]: 3 µM | selectivity ratio [16]: 21 | selectivity ratio [17]: 29 | selectivity ratio [18]: 2

EC50 [15]: 6.5 µM
Compound: C/C1=C/C(=O)O[C@H](C(C)(C)C)CCC[C@H](O)CCC[C@H](O)CCC[C@H](O)CCC[C@@H](O)C[C@@H](O)C[C@H](O)CCC[C@@H](O)CCC[C@@H](O)C[C@@H](O)CCCCC1
EC50 [14]: 3 µM | selectivity ratio [22]: 2 | selectivity ratio [23]: 1

EC50 [9]: 3.1 µM
Compound: O=C(O)c1ccc2c(n1)C(=O)C1=C(C2=O)S(=O)(=O)CCN1 [ACIDIATHIAZONE A]
selectivity ratio [17]: 50 | inhibition in vivo at 50 mg/kg/day [24]: 85% | inhibition in vivo at 100 mg/kg/day [25]: 45%

EC50 [6]: 18.1 µM | EC50 [15]: 67 µM | EC50 [26]: 5.7 µM
Compound: C=C1C(=O)O[C@H]2C[C@@](C)(O)C3=CC[C@](C)(O)[C@@H]3C[C@H]12 [GUAIANOLIDE]
